Test results from patent US20080300243A1, “Amide Derivatives as Ion-Channel Ligands and Pharmaceutical Compositions and Methods of Using the Same” (priority 2005, published 2008).

Experiments:
[1] = Half-life in human liver microsomes (HLM); assay type: in vitro ADME; details: 1 μM compound, 0.78 mg/mL HLM, 37° C., NADPH; for half-life at 1 μM: human, human liver microsomes (HLM, HL101), pH 7.4
Protocol: Test compounds (1 μM) were incubated with 3.3 mM MgCl2 and 0.78 mg/mL HLM (HL101) in 100 mM potassium phosphate buffer (pH 7.4) at 37° C. on the 96-deep well plate. The reaction mixture was split into two groups, a non-P450 and a P450 group. NADPH was only added to the reaction mixture of the P450 group. An aliquot of samples of P450 group was collected at 0, 10, 30, and 60 min time point, where 0 min time point indicated the time when NADPH was added into the reaction mixture of P450 group. An aliquot of samples of non-P450 group was collected at −10 and 65 min time point. Collected aliquots were extracted with acetonitrile solution containing an internal standard. The precipitated protein was spun down in centrifuge (2000 rpm, 15 min). The compound concentration in supernatant was measured by LC/MS/MS system.
The half-life value was obtained by plotting the natural logarithm of the peak area ratio of compounds/internal standard versus time. The slope of the line of best fit through the points yields the rate of metabolism (k). This was converted to a half-life value using following equations:
Exemplary compounds of the invention were tested (1 μM), and were incubated with 3.3 mM MgCl2 and 0.78 mg/mL HLM (HL101) in 100 mM potassium phosphate buffer (pH 7.4) at 37° C. on the 96-deep well plate. The reaction mixture was split into two groups, a non-P450 and a P450 group. NADPH was only added to the reaction mixture of the P450 group. An aliquot of samples of the P450 group was collected at 0, 10, 30, and 60 minute time points, where the 0 minute time point indicated the time when NADPH was added into the reaction mixture of the P450 group. An aliquot of samples of the non-P450 group was collected at −10 and 65 minute time points. Collected aliquots were extracted with an acetonitrile solution containing an internal standard. The precipitated protein was spun down in a centrifuge (2000 rpm, 15 rain). The compound concentration in supernatant was measured by LC/MS/MS system. The half-life value (T1/2) was obtained by plotting the natural logarithm of the peak area ratio of compounds/internal standard versus time. The slope of the line of best fit through the points yields the rate of metabolism (k). This was converted to a half-life value using following equations: Half-life=ln 2/k.

VR1 = VR1 (Homo sapiens, UniProt Q8NER1); assay: Calcium uptake assay, low pH (proton) stimulus; assay type: cell-based; set-up: expressed in transfected cells; host or cells: T-REx HEK 293 (Invitrogen), pcDNA5/TO vector; details: HEK293, low pH agonist, HEK 293 cells expressing hVR1; for inhibition at 0.3 µM: 0.3 μM compound, read-out: Low pH % Inhib. @ 0.3 μM
Chain of VR1 (Q8NER1 whole entry): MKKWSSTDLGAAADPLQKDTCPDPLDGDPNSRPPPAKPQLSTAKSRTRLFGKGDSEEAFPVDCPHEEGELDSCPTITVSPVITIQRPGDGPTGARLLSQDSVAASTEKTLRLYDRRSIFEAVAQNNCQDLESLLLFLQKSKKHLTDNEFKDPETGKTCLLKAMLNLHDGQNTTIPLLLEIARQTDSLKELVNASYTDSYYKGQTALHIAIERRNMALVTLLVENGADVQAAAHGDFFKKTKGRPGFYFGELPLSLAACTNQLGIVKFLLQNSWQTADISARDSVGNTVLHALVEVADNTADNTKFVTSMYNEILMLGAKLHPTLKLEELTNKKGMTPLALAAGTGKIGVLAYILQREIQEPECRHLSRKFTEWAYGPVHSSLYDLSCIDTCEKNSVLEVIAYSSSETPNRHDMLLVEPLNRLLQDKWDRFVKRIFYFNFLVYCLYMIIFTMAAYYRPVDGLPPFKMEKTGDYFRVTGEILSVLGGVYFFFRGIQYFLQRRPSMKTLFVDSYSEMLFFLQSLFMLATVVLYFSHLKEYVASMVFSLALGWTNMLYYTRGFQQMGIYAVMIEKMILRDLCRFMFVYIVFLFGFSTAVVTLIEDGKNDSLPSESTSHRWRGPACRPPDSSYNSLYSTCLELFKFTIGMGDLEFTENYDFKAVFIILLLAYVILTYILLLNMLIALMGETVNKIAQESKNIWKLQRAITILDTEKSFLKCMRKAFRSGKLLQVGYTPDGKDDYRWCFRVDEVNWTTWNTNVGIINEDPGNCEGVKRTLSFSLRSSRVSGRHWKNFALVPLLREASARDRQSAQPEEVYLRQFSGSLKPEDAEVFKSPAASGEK

half-life at 1 μM [1] [min] | inhibition at 0.3 µM (VR1) [%] | SMILES | further results
70.8 | 106 | CC(C)(C)C#Cc1ccc(C(=O)Nc2ccc3c(c2)OCCO3)cn1 [Compound 22] | 
24 | 108 | CC(C)(C)C#Cc1ccc(C(=O)Nc2cccc3cnccc23)cc1 [Compound 31] | 
103 | 54 | O=C(Nc1cnc2ccccc2c1)c1ccc(/C=C/C(F)(F)F)cc1 [Compound 36] | 
1.2 |  | O=C(Nc1cnc2ccccc2c1)c1ccc(C#CC(F)(F)F)cc1 [Compound 46] | 
1.8 | 101 | Cc1nc2cc(NC(=O)c3ccc(C#CC(F)(F)F)cc3)ccc2s1 [Compound 52] | 
25.2 | 109 | CCOc1cc(C(=O)Nc2cccc3cnccc23)ccc1C#CC(C)(C)C [Compound 65] | 
73.2 | 119 | CN1CCCc2ccc(NC(=O)c3ccc(C#CC(C)(C)C)cc3)cc21 [Compound 74] | 
18 | 102 | CC(C)(C)C#Cc1ncc(C(=O)Nc2ccc3c(c2)OCCN3)cn1 [Compound 95] | 
 | 95 | CC(C)(C)C#Cc1ccc(C(=O)Nc2ccc3c(c2)OCC(CO)O3)c(F)c1 (stereo not shown) [Compound 154] | 
 | 95 | CC(C)(C)C#Cc1ccc(C(=O)Nc2ccc3c(c2)OCCO3)c(F)c1 [Compound 155] | 
 | 95 | CC(C)(C)C#Cc1ccc(C(=O)Nc2cccc3cnccc23)c(Cl)c1 [Compound 161] | 
 | 107 | Cc1nc2cc(NC(=O)c3ccc(C#CC(C)(C)C)cc3Cl)ccc2s1 [Compound 165] | 
 | 104 | CC(C)(C)C#Cc1cc(F)c(C(=O)Nc2ccc3c(c2)OCC(CO)N3)c(F)c1 (stereo not shown) [Compound 168] | 
 | 109 | Cc1nc2cc(NC(=O)c3ccc(C#CC(C)(C)C)cc3F)ccc2s1 [Compound 173] | 
 | 97 | CC(C)(C)C#Cc1ccc(C(=O)Nc2cnc3ccccc3c2)c(F)c1 [Compound 174] | 
 | 95 | CC(C)(C)C#Cc1ccc(C(=O)Nc2cccc3cnccc23)c(F)c1 [Compound 175] | 
 | 9 | O=C(Nc1cnc2ccccc2c1)c1ccc(/C=C/C(F)(F)F)cc1F [Compound 178] | 

half-life at 1 μM [1] [min] | inhibition at 0.3 µM (VR1) [%] | SMILES | further results
 | 100 | CC(C)(C)C#Cc1cc(F)c(C(=O)Nc2cnc3ccccc3c2)c(F)c1 [Compound 179] | 
 | 99 | Cc1nc2cc(NC(=O)c3c(F)cc(C#CC(C)(C)C)cc3F)ccc2s1 [Compound 180] | 
 | 103 | CC(C)(C)C#Cc1ccc(C(=O)Nc2ccc3c(c2)OC[C@H](CO)N3)c(Cl)c1 [Compound 182] | 
 | 98 | CC(C)(C)C#Cc1ccc(C(=O)Nc2ccc3c(c2)OC[C@@H](CO)N3)c(Cl)c1 [Compound 183] | 
 | 91 | Cc1cc(C#CC(C)(C)C)ccc1C(=O)Nc1ccc2c(c1)OCC(CO)O2 (stereo not shown) [Compound 186] | 
 | 83 | CC(C)(C)C#Cc1cc(Cl)c(C(=O)Nc2ccc3c(c2)OCC(CO)O3)cc1F (stereo not shown) [Compound 191] | 
 | 67 | Cc1cc(C#CC(C)(C)C)ccc1C(=O)Nc1cccc2c(Cl)cccc12 [Compound 199] | 
 | 97 | Cc1cc(C#CC(C)(C)C)ccc1C(=O)Nc1cnc2[nH]ccc2c1 [Compound 212] | 
 | 88 | Cc1cc(C#CC(C)(C)C)ccc1C(=O)Nc1ccc2c(c1)C(=O)NC2=O [Compound 213] | 
 | 86 | Cc1nc2cc(NC(=O)c3ccc(C#CC(C)(C)C)cc3C)ccc2[nH]1 [Compound 215] | 
 | 31 | Cc1cc(C#CC(C)(C)C)ccc1C(=O)Nc1cnc2cc(CO)ccc2c1 [Compound 216] | 
 | 59 | Cc1cc(C#CC(C)(C)C)ccc1C(=O)Nc1ccc2[nH]c(=O)oc2c1 [Compound 217] | 
 | 6 | Cc1cc(C#CC(C)(C)C)ccc1C(=O)Nc1cnc2[nH]c(CO)nc2c1 [Compound 218] | 
 | 82 | Cc1cc(/C=C/C(F)(F)F)ccc1C(=O)Nc1ccc2ncccc2c1 [Compound 222] | 
 | 82 | Cc1cc(/C=C/C(F)(F)F)ccc1C(=O)Nc1ccc2cccnc2c1 [Compound 224] | 
 | 99 | Cc1cc(/C=C/C(F)(F)F)ccc1C(=O)Nc1cnc2[nH]ccc2c1 [Compound 230] | 

The remaining lines, values behind:

SMILES | half-life at 1 μM [1] [min] | inhibition at 0.3 µM (VR1) [%] | further results
O=C(Nc1ccc2c(c1)OCCO2)c1ccc(/C=C/C(F)(F)F)cc1 [Compound 34] | 69 | 97 | 
O=C(Nc1cccc2cnccc12)c1ccc(C#CC2CC2)cc1 [Compound 48] | 19.8 | 99 | 
CC(C)(C)C#Cc1ccc(C(=O)Nc2cccc3cnccc23)cc1OCCN1CCOCC1 [Compound 60] |  |  | Half Life [1]: 21 min
O=C(Nc1ccc2c(c1)OCCN2)c1ccc(/C=C/C(F)(F)F)cc1 [Compound 63] |  |  | Half Life [1]: 24 min
CN1CCCc2ccc(NC(=O)c3ccc(/C=C/C(F)(F)F)cc3)cc21 [Compound 79] | 79.8 | 98 | 
C/C(=C\c1ccc(C(=O)Nc2cccc3cnccc23)cc1)C(F)(F)F [Compound 89] | 31.8 | 92 | 
C/C(=C\c1ccc(C(=O)Nc2ccc3c(c2)OCCN3)cc1)C(F)(F)F [Compound 93] | 39 | 105 | 
O=C(Nc1ccc2c(c1)OCCN2)c1ccc(C#CC2CC2)c(OCC2CC2)c1 [Compound 94] | 28.8 | 85 | 
O=C(Nc1ccc2c(c1)OC[C@H](CO)O2)c1ccc(C#CC2CC2)cc1 [Compound 103] | 18.6 | 92 | 
O=C(Nc1ccc2c(c1)OC[C@@H](CO)O2)c1ccc(C#CC2CC2)cc1 [Compound 104] | 16.8 | 91 | 
O=C(Nc1ccc2c(c1)OCC(CO)O2)c1ccc(C#CC2CCCC2)cc1 (stereo not shown) [Compound 112] | 48 | 88 | 
COc1cc(/C=C/C(F)(F)F)ccc1C(=O)Nc1ccc2c(c1)OCCN2 [Compound 122] | 75 | 19 | 
COc1cc(/C=C/C(F)(F)F)ccc1C(=O)Nc1ccc2c(c1)OCCO2 [Compound 123] | 113 | 19 | 
O=C(Nc1ccc2c(c1)OCC(CO)O2)c1ccc(C#CC2CC2)cc1F (stereo not shown) [Compound 150] |  | 75 | 
Cc1cc(C#CC2CC2)ccc1C(=O)Nc1ccc2c(c1)OCC(CO)O2 (stereo not shown) [Compound 151] |  | 108 | 
Cc1cc(C#CC2CC2)ccc1C(=O)Nc1ccc2c(c1)OCCO2 [Compound 152] |  | 73 | 
Cc1cc(C#CC2CC2)ccc1C(=O)Nc1ccc2c(c1)OCCN2 [Compound 153] |  | 104 | 
O=C(Nc1ccc2c(c1)OCC(CO)O2)c1ccc(C#CC2CC2)cc1Cl (stereo not shown) [Compound 156] |  | 102 | 
O=C(Nc1ccc2c(c1)OC[C@@H](CO)N2)c1ccc(C#CC2CC2)cc1F [Compound 169] |  | 112 | 
O=C(Nc1ccc2c(c1)OC[C@H](CO)N2)c1ccc(C#CC2CC2)cc1F [Compound 171] |  | 112 | 
Cc1nc2cc(NC(=O)c3ccc(/C=C/C(F)(F)F)cc3F)ccc2s1 [Compound 177] |  | 85 | 
Cc1cc(/C=C/C(F)(F)F)ccc1C(=O)Nc1ccc2c(c1)OCC(CO)O2 (stereo not shown) [Compound 185] |  | 92 | 
Cc1cc(/C=C/C(F)(F)F)ccc1C(=O)Nc1ccc2c(c1)OCC(O)CN2 (stereo not shown) [Compound 189] |  | 87 | 
Cc1cc(/C=C/C(F)(F)F)ccc1C(=O)Nc1ccc2c(c1)OCCO2 [Compound 190] |  | 87 | 
Cc1cc2c(NC(=O)c3ccc(/C=C/C(F)(F)F)cc3C)cccc2cn1 [Compound 196] |  | 86 | 
Cc1cc(/C=C/C(F)(F)F)ccc1C(=O)Nc1cccc2c(Cl)nccc12 [Compound 200] |  | 55 | 
Cc1cc(/C=C/C(F)(F)F)ccc1C(=O)Nc1cnc2c(c1)CNCC2 [Compound 229] |  | 54 | 
COc1cc(NC(=O)c2ccc(/C=C/C(C)C)cc2)cc(C(F)(F)F)c1 [Compound 240] |  |  | inhibition at 1 µM (VR1; 1 μM compound, read-out: Low pH % Inhib. (at 1 μM)): 75%
